Test results from patent US20190233836A1, “MEANS AND METHODS TO INCREASE COUMARIN PRODUCTION” (VIB VZW, priority 2016, published 2019).

system: COSY; assay: Enzymatic activity of COSY: in vitro assay combined with tobacco 4CL and CoA; type: biochemical, Arabidopsis thaliana; conditions: 4CL and COSY added simultaneously, CoA present; purified COSY expressed in E. coli
Excerpt: FIG. 7: Enzymatic activity of COSY. COSY and 4CL were supplemented with either 2-hydroxy-p-coumaric acid (2OHpCA), 6-hydroxycaffeic acid (6OHCA) or 6-hydroxyferulic acid (6OHFA). Umbelliferone, esculetin and scopoletin were formed, respectively, only in the presence of CoA and the enzymes 4CL and COSY. The y-axis represents the normalized abundance, error bars show the standard deviation (n=4).
Although the idea of spontaneous isomerization and lactonisation in the biosynthesis of coumarins is now widely accepted in literature (Matsumoto S. et al., 2012; Yang et al., 2015) our cosy mutant data in Example 1 clearly contradict this. When we took a closer examination at the lactonisation reaction of the coumarin core structures we investigated the possible resemblance to an esterification-type reaction mediated by BAHD acyltransferases. BAHD family members utilize activated CoA-thioesters as acyl-donors and an alcohol or amine as the acyl acceptor to form an ester or amide, respectively. We therefore hypothesized that COUMARIN SYNTHASE (COSY) could be a BAHD acyltransferase responsible for the isomerization and lactonization of ortho-hydroxy-cinnamoyl CoA thioesters into coumarins. To verify the catalytic activity of COSY in vitro, COSY was expressed in Escherichia coli and the corresponding COSY protein purified. Potential substrates were chosen based on the phenolic profiling of the cosy mutants. […] Because neither 2′-hydroxy-p-coumaroyl-CoA, 6′-caffeoyl-CoA nor 6′-hydroxyferuloyl-CoA were commercially available, the corresponding acids were synthesized and the enzymatic assays were performed in combination with a tobacco 4-COUMARATE:CoA LIGASE (4CL) to catalyze the formation of the corresponding CoA thioesters in situ (Beuerle & Pichersky, 2002). In the samples where 4CL and COSY were added simultaneously, seemingly 100% 2-hydroxy-p-coumaric acid and 6-hydroxyferulic acid were converted into the corresponding coumarins, i.e., umbelliferone and scopoletin. […]

Compound	substrate converted into the corresponding coumarin (umbelliferone, scopoletin, esculetin)
O=C(O)/C=C/c1ccc(O)cc1O [2-hydroxy-p-coumaric acid]	~100%
O=C(O)/C=C/c1cc(O)c(O)cc1O [6-hydroxycaffeic acid]	About 50%
COc1cc(/C=C/C(=O)O)c(O)cc1O [6-hydroxyferulic acid]	~100%
